pIC50: −log10 of the molar value. Like-named read-outs stand apart in the source and are kept apart here.
Key:
MHCC97L cells [1] = experiment: IC50 values by cell proliferation assay (WST-1); type: cell-based; conditions: Homo sapiens, individual inhibitor, 72 hours
Excerpt: (§1) See Shailubhai, K et al. “Atiprimod is an inhibitor of cancer cell proliferation and angiogenesis.” J Exp Ther Oncol. 2004; 4: 267-279; and Choudhari et al. “Deactivation of Akt and STAT3 signaling promotes apoptosis, inhibits proliferation, and enhances the sensitivity of hepatocellular carcinoma cells to an anticancer agent, atiprimod” Molecular Cancer Therapeutics. 2007; 6: 112-121. References are incorporated herein in their entireties.
(§2) MHCC97H and MHCC97L (highly metastatic hepatocellular carcinoma cell line, derived from humans)
(§3) Cells (MHCC97H, MHCC97L, and HepG2.2.15) were cultured for 24 hours in 2% FBS and then were trypsinized, resuspended in 2% FBS and seeded in a rat collagen coated 96-well plate at a density of 10,000 cells/100 μl/well, a day before the experiment and cultured at 37° C. in 5% CO2. The cells were treated the next day with milciclib, sorafenib, regorafenib, sunitinib, and lenvatinib, individually or in combination in DMEM/F12+2% FBS+for 72 hours prior to the addition of WST-1 reagent. About 100 μL media was added to control well. After cells had been cultured for 72 hours with different drug concentrations, cells were washed 3 times with sterile 1× Phosphate buffered saline (PBS). To determine cell proliferation by the colorimetric test, 10 μL of WST-1 reagent (Sigma Aldrich, St Louis, Mo.) was added in 100 μL cell culture media and incubated for 2 hours in 5% CO2 at 37° C. At the end of incubation period, the plate was placed on a plate shaker for 1 minute and was monitored using a spectrophotometer at an optical density of 450 nm with a reference wavelength of 600 nm using Tecan F200 and iControl software. IC50 values were determined using GraphPad Prism (GraphPad Software, La Jolla, Calif.). Each experiment was performed in duplicate and repeated 2 times.

HepG2.2.15 cells = experiment: IC50 values by cell proliferation assay (WST-1); type: cell-based; conditions: Homo sapiens, read-out: HepG2.2.15 IC50
Excerpt: as §1
HepG2.2.15 cells are derived from the human hepatoblastoma cell line HepG2.
as §3

MHCC97L cells [2] = experiment: EMT transwell invasion assay; type: cell-based, human; conditions: in combination with milciclib, vs individual treatment, P<0.005
Protocol: (§4) EMT (Epithelial to Mesenchymal Transition) induction employing kit from R&D systems (Cat # CCM017)
(§5) For transwell invasion assay HCC cells were seeded in the top chamber in 6 well transwell plates (Sigma-Aldrich, St. Louis, Mo.) at a density of 100,000 cells/500 μL/well in standard culture media containing 100× StemXVivo® EMT Inducing Media Supplement (R&D systems, Minneapolis, Minn.) and was incubated overnight at 37° C. in humidified CO2 incubator. Next day, EMT inducing media with or without the test articles was added and incubation was continued for 10 days with media changes every 3 days. On the 10th day, the number of cells migrated to the lower chamber was determined using Bio-Rad (Hercules, Calif.) automatic cell counter. Values obtained were expressed as a percentage of invasion and the cell counts of control cells were considered 100%.
(§6) The invasive potential of cancer cells is dependent on losing epithelial characteristics and acquiring a migratory mesenchymal property referred to as Epithelial to Mesenchymal Transition (EMT).

MHCC97H cells [3] = experiment: EMT transwell invasion assay; type: cell-based, human; conditions: in combination with milciclib, vs individual treatment, P<0.005
Protocol: as §4, §5, §6

MHCC97H cells [4] = experiment: IC50 values by cell proliferation assay (WST-1); type: cell-based, human; conditions: for pIC50: individual inhibitor, 72 hours, WST-1, read-out: MHCC97H IC50; for IC50: MHCC97H cells
Protocol: as §2
as §3, with “After cells had been cultured for 72 hours with different drug concentrations, cells were washed 3 times with sterile 1× Phosphate buffered saline (PBS).” left out

alpha-fetoprotein (AFP) = experiment: Serum AFP in orthotopic HCC mouse model; type: in vivo, mice; conditions: milciclib 30 mg/kg, sorafenib 20 mg/kg, oral, vs vehicle
Protocol: MHCC97H cells were seeded at a density of 500,000 cells/2 mL/well on a 6 well culture plate and incubated overnight at 37° C. in a humidified CO2 incubator. Cells were then treated with 1.3 μM milciclib or vehicle in DMEM/F12+2% FBS for 72 hours. Subsequently, cells were lysed in RIPA buffer, the supernatant was collected and used to perform ELISA assay as per the manufacturer's instructions. In orthotopic HCC mouse model, levels of serum marker alpha-fetoprotein (AFP) were determined on day 0, 6, 12, 18, 24, 30, 36, 42 and 48 using High Range AFP kit as per manufacturer's instructions.
Mouse experiments were performed in accordance with the guidelines approved by the Institutional Animal Care and use committee of Washington Biotechnology Inc (Baltimore, Md.) where the studies were conducted. (FIG. 66) Test agents were dissolved in chremophor/ethanol (1:1) to make a 5× stock solution and diluted in water when used. MHCC97H human liver cells (5×106) in PBS were mixed with 20% Matrigel and then inoculated orthotopically into the right flank of female Balb/c nude mice. Seven days after cell inoculation, the mice were randomly allocated to either the treatment group (n=12) or the control group (n=12) based on the levels of AFP. The daily animal inspection was conducted for general appearance and tumor growth. […]

[5] = system: MHCC97H human liver cells; experiment: Orthotopic tumor induction in athymic nude mice; type: in vivo; conditions: oral, once daily day 12 to 47; milciclib 30 mg/kg/day, sorafenib 20 mg/kg/day; vs vehicle
Protocol: Mouse experiments were performed in accordance with the guidelines approved by the Institutional Animal Care and use committee of Washington Biotechnology Inc (Baltimore, Md.) where the studies were conducted. (FIG. 66) Test agents were dissolved in chremophor/ethanol (1:1) to make a 5× stock solution and diluted in water when used. MHCC97H human liver cells (5×106) in PBS were mixed with 20% Matrigel and then inoculated orthotopically into the right flank of female Balb/c nude mice. Seven days after cell inoculation, the mice were randomly allocated to either the treatment group (n=12) or the control group (n=12) based on the levels of AFP. The daily animal inspection was conducted for general appearance and tumor growth. Milciclib (30 mg/Kg), sorafenib (20 mg/Kg), milciclib+sorafenib or the corresponding vehicle was given orally to individual mice once daily from day 12 until day 47. After completion of the treatment at day 48, animals were euthanized and blood, liver tissues and tumor were collected for gene expression and mechanistic assays. Liver tumors developed 100% of animals challenged with orthotopic MHCC97H injection.

miR-221 and miR-222 = experiment: miRNA isolation and expression analysis of tumor tissues; type: in vivo; conditions: tumor tissues from orally treated mice, vs vehicle
Protocol: miRNA from athymic nude mice following treatment with vehicle, milciclib, sorafenib, or milciclib+sorafenib was isolated from Total RNA using the TaqMan Advanced miRNA cDNA Synthesis Kit (Thermo Fisher Scientific, Rockford, Ill.) according to the manufacturer's instructions. miRNA-221 and miR-222 quantifications were performed in duplicates using TaqMan Advanced miRNA Assay (Thermo Fisher Scientific, Rockford, Ill.) with a sample dilution of 1:10. The PCR mixture was incubated at 95° C. for 20 seconds, followed by 40 cycles of 95° C. for 3 seconds and 60° C. for 30 seconds. Results were normalized to hsa-miR-192-5p as reference miRNA and the relative gene expression calculated as 2−ΔCT was expressed as fold increase over control samples.
Tumor tissues from mice treated with vehicle, sorafenib, milciclib, milciclib+sorafenib and normal liver tissues from naïve untreated mice were collected and levels of miR-221 and miR-222 were determined. The levels of both of miR-221 and miR-222 were elevated in tumors from vehicle treated mice.

[6] = Homo sapiens, in combination with fixed 1.3 μM milciclib, read-out: IC50 (μM) KINASE INHIBITORS + 1.3 μM MILCICLIB
[7] = Homo sapiens, inhibitor alone (synergy studies), read-out: IC50 (μM) OF KINASE INHIBITORS
[8] = in combination with fixed 1.3 μM milciclib, read-out: IC50 (μM) KINASE INHIBITORS + 1.3 μM MILCICLIB
[9] = HepG2.2.15, individual inhibitor, 72 hours, WST-1
[10] = Homo sapiens, MHCC97H, 72 h, inhibitor alone (synergy studies), read-out: IC50 (μM) OF KINASE INHIBITORS

**Q.** How did the pIC50 (MHCC97L cells [1]) turn out when `COc1cc2nccc(Oc3ccc(NC(=O)NC4CC4)c(Cl)c3)c2cc1C(N)=O` [LENVATINIB, lenvatinib] was run?
**A.** The pIC50 was 6.85.

**Q.** And the pIC50 (HepG2.2.15 cells; HepG2.2.15, 72 h)?
**A.** Its pIC50 is 6.62.

**Q.** What about the invasion potential (MHCC97L cells [2]) of the same molecule?
**A.** The invasion potential was “reduced the invasion potential to a greater extent”.

**Q.** What about the invasion potential (MHCC97H cells [3]) of the same molecule?
**A.** The invasion potential was “reduced the invasion potential to a greater extent”.

**Q.** And the pIC50 (MHCC97H cells [4]; Homo sapiens, MHCC97H)?
**A.** The pIC50 was 6.55.

**Q.** What about the IC50 (MHCC97H cells [4]; [6]) of the same molecule?
**A.** Its IC50 is 0.12 µM.

**Q.** And the IC50 (MHCC97H cells [4]; [7])?
**A.** The IC50 was 0.28 µM.

**Q.** How did the pIC50 (MHCC97L cells [1]) turn out when `CC(=O)c1c(C)c2cnc(Nc3ccc(N4CCNCC4)cn3)nc2n(C2CCCC2)c1=O` [PALBOCICLIB, palbociclib] was run?
**A.** Its pIC50 is 5.09.

**Q.** And the pIC50 (HepG2.2.15 cells; HepG2.2.15, 72 h)?
**A.** Its pIC50 is 4.95.

**Q.** What about the IC50 (MHCC97H cells [4]; Homo sapiens, 72 h, inhibitor alone (synergy studies), read-out: IC50 (μM) OF KINASE INHIBITORS) of the same molecule?
**A.** Its IC50 is 14.5 µM.

**Q.** What about the pIC50 (MHCC97H cells [4]; Homo sapiens, MHCC97H) of the same molecule?
**A.** Its pIC50 is 4.84.

**Q.** What about the IC50 (MHCC97H cells [4]; [8]) of the same molecule?
**A.** Its IC50 is 6.7 µM.

**Q.** With `CNC(=O)c1cc(Oc2ccc(NC(=O)Nc3ccc(Cl)c(C(F)(F)F)c3)c(F)c2)ccn1` [REGORAFENIB, regorafenib] as the molecule, how does the pIC50 (MHCC97L cells [1]) read?
**A.** Its pIC50 is 5.46.

**Q.** And the pIC50 (HepG2.2.15 cells; [9])?
**A.** Its pIC50 is 5.40.

**Q.** What about the invasion potential (MHCC97L cells [2]) of the same molecule?
**A.** Its invasion potential is “reduced the invasion potential to a greater extent”.

**Q.** What about the invasion potential (MHCC97H cells [3]) of the same molecule?
**A.** The invasion potential was “reduced the invasion potential to a greater extent”.

**Q.** And the pIC50 (MHCC97H cells [4]; Homo sapiens, MHCC97H)?
**A.** Its pIC50 is 5.33.

**Q.** What about the IC50 (MHCC97H cells [4]; [6]) of the same molecule?
**A.** The IC50 was 1.9 µM.

**Q.** And the IC50 (MHCC97H cells [4]; [7])?
**A.** Its IC50 is 4.7 µM.

**Q.** `CNC(=O)c1cc(Oc2ccc(NC(=O)Nc3ccc(Cl)c(C(F)(F)F)c3)cc2)ccn1` [SORAFENIB, sorafenib] was tested. Which pIC50 (MHCC97L cells [1]) did it give?
**A.** The pIC50 was 5.06.

**Q.** And the pIC50 (HepG2.2.15 cells; [9])?
**A.** The pIC50 was 5.19.

**Q.** What about the invasion potential (MHCC97L cells [2]) of the same molecule?
**A.** Its invasion potential is “reduced the invasion potential to a greater extent”.

**Q.** What about the invasion potential (MHCC97H cells [3]) of the same molecule?
**A.** The invasion potential was “reduced the invasion potential to a greater extent”.

**Q.** And the “serum AFP levels” value (alpha-fetoprotein (AFP))?
**A.** The value was “Significantly lower”.

**Q.** What about the reducing tumor growth [5] of the same molecule?
**A.** Its reducing tumor growth is 21%.

**Q.** What about the “expression of miR-221 and miR-222” value (miR-221 and miR-222) of the same molecule?
**A.** Its value is “modestly reduced”.

**Q.** What about the IC50 (MHCC97H cells [4]; [10]) of the same molecule?
**A.** The IC50 was 12 µM.

**Q.** And the IC50 (MHCC97H cells [4]; Homo sapiens, MHCC97H, in combination with fixed 1.3 μM milciclib, read-out: IC50 (μM) KINASE INHIBITORS + 1.3 μM MILCICLIB)?
**A.** Its IC50 is 6.7 µM.

**Q.** And the IC50 (MHCC97H cells [4]; Homo sapiens, MHCC97H, inhibitor alone (synergy studies), read-out: IC50 (μM) OF KINASE INHIBITORS)?
**A.** Its IC50 is 12 µM.

**Q.** What about the pIC50 (MHCC97H cells [4]; Homo sapiens, MHCC97H) of the same molecule?
**A.** Its pIC50 is 4.92.

**Q.** With `CCN(CC)CCNC(=O)c1c(C)[nH]c(/C=C2\C(=O)Nc3ccc(F)cc32)c1C` [SUNITINIB, sunitinib] as the molecule, how does the pIC50 (MHCC97L cells [1]) read?
**A.** The pIC50 was 5.09.

**Q.** And the pIC50 (HepG2.2.15 cells; [9])?
**A.** Its pIC50 is 4.59.

**Q.** And the IC50 (MHCC97H cells [4]; [10])?
**A.** Its IC50 is 30.4 µM.

**Q.** And the pIC50 (MHCC97H cells [4]; Homo sapiens, MHCC97H, 72 h)?
**A.** The pIC50 was 4.52.

**Q.** And the IC50 (MHCC97H cells [4]; [8])?
**A.** The IC50 was 17.2 µM.
